Laboratory results: patent EP4603105A1, “PHARMACEUTICAL COMPOSITION CONTAINING CYCLIC COMPOUND HAVING SELECTIVE KRAS INHIBITORY EFFECT AGAINST HRAS AND NRAS” (CHUGAI SEIYAKU KABUSHIKI KAISHA, priority 2022, dated 2024)
Like-named read-outs stand apart in the source and are kept apart here.

Legend:
HRAS wild-type protein = HRAS wild-type protein (Homo sapiens, UniProt P01112); experiment: Binding to HRAS by surface plasmon resonance (SPR), KD and KD ratio to KRAS
How it was run: (§1)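 Captured GDP-RAS (~100–300 RU) was exposed to increasing compound concentrations, 75 s per step, in running buffer with 10 µM GDP, 10 mM MgCl2 and 4% DMSO at pH 7.4.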

[1] = target: GDP-bound NRAS wild-type protein (Homo sapiens, UniProt P01111); experiment: Binding to NRAS by surface plasmon resonance (SPR), KD and KD ratio to KRAS
Chain of GDP-bound NRAS wild-type protein (P01111 whole entry): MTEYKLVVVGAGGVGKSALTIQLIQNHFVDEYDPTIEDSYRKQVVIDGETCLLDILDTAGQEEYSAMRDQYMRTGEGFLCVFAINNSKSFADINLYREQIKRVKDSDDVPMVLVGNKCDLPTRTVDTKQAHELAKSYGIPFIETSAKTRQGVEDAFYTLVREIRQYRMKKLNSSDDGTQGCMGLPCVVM
How it was run: as §1

[2] = target: GDP-bound KRAS wild-type protein (Homo sapiens, UniProt P01116); experiment: Binding to KRAS by surface plasmon resonance (SPR), dissociation constant KD
Chain of GDP-bound KRAS wild-type protein (P01116 1-188 isoform P01116-2): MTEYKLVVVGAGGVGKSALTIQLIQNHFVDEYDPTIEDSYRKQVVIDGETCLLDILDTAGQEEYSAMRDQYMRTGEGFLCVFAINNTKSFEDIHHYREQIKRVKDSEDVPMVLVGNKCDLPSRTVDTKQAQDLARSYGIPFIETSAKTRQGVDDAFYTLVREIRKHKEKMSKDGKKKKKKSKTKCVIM
How it was run: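 Biotinylated GDP-bound RAS was captured at about 100–300 RU. Running buffer: HBS pH 7.4, 10 mM MgCl2, 10 µM GDP, 1 mM DTT, 0.01% Tween 20, 4% DMSO.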

[3] = test system: human lung cancer strain NCI-H441; experiment: NCI-H441 cell proliferation inhibitory activity (CellTiter-Glo, 4 days); assay type: cell-based; conditions: read-out: NCl-H441 IC50
How it was run: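 Step one: dispense the test compound in serial DMSO dilutions. Step three: add the reagent and measure […].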

[4] = ratio of KD with respect to HRAS wild-type protein to KD with respect to KRAS
[5] = ratio of KD with respect to GDP-bound NRAS wild-type protein to KD with respect to KRAS
[6] = Single Cycle Kinetics, 1:1 binding model
[7] = 50% proliferation inhibitory concentration, four days
[8] = ratio of KD for HRAS wild-type protein to KD for KRAS
[9] = ratio of KD for GDP-bound NRAS wild-type protein to KD for KRAS

Chain of HRAS wild-type protein (P01112 whole entry): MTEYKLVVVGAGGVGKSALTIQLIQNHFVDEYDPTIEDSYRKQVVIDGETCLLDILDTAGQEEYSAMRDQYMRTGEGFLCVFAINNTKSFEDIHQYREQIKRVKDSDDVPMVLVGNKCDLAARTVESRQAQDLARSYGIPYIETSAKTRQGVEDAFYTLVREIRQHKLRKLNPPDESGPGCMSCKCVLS

SMILES	Kd [2, 6] [nM]	IC50 [3, 7] [nM]	Kd ([2]; Single Cycle Kinetics) [nM]	IC50 ([3]; NCI-H441 cells, 4 days) [nM]	Kd ([2]; 1:1 binding model) [nM]	HRAS /KRAS (HRAS wild-type protein; [4])	NRAS /KRAS [1, 5]	HRAS /KRAS (HRAS wild-type protein; [8])	NRAS /KRAS [1, 9]
CCO[C@@H]1C[C@H]2C(=O)NC3(CCC3)C(=O)N(C)[C@@H](C(CC)CC)C(=O)N(C)[C@H](C(=O)N(C)C)CC(=O)N(C)[C@@H](C)C(=O)N[C@@H]([C@@H](C)CC)C(=O)N(C)CC(=O)N(C)[C@H]3C/C=C\CCN(C3=O)[C@@H](Cc3ccc(C(F)(F)F)cc3)C(=O)N(C)CC(=O)N[C@@H](CCc3ccc(Cl)c(Cl)c3)C(=O)N2C1 [PP1214]	0.34	93.4				A (a compound having 10 or more and less than 20 is denoted as A)	AA (a compound having 20 or more is denoted as AA)		
CCO[C@@H]1C[C@H]2C(=O)NC3(CCC3)C(=O)N(C)[C@@H](C3CCCC3)C(=O)N(C)[C@H](C(=O)N(C)C)CC(=O)N(C)[C@@H](CC3CCCC3)C(=O)N[C@@H]([C@@H](C)CC)C(=O)N(C)CC(=O)N(C)[C@H]3C/C=C\CCN(C3=O)[C@@H](Cc3ccc(C(F)(F)F)cc3)C(=O)N(C)CC(=O)N[C@@H](CCc3ccc(Cl)c(Cl)c3)C(=O)N2C1 [PP1254]	0.2	28.3				A (a compound having 10 or more and less than 20 is denoted as A)	AA (a compound having 20 or more is denoted as AA)		
CCO[C@@H]1C[C@H]2C(=O)NC3(CCC3)C(=O)N(C)[C@@H](C(CC)CC)C(=O)N(C)[C@H](C(=O)N(C)C)CC(=O)N(C)[C@@H](CC3CCCC3)C(=O)N[C@@H]([C@@H](C)CC)C(=O)N(C)CC(=O)N(C)[C@H]3C/C=C\CCN(C3=O)[C@@H](CC3CCCCC3)C(=O)N(C)CC(=O)N[C@@H](CCc3cc(F)c(C(F)(F)F)c(F)c3)C(=O)N2C1 [PP1430]	0.85	70.4				A (a compound having 10 or more and less than 20 is denoted as A)	A (a compound having 10 or more and less than 20 is denoted as A)		
CCCO[C@H](C)[C@@H]1NC(=O)[C@H](CC(C)C)N(C)C(=O)C[C@@H](C(=O)N(C)C)N(C)C(=O)[C@H](C2CCCC2)N(C)C(=O)C2(CC(C)(C)C2)NC(=O)[C@@H]2C[C@H](C)CN2C(=O)[C@H](CCc2ccc(C(F)(F)F)c(OC)c2)NC(=O)CN(C)C(=O)[C@H](Cc2ccc(C)cc2)N2CC/C=C\C[C@@H](C2=O)N(C)C(=O)CN(C)C1=O [PP2415]				10.3	0.093			A (a compound having 10 or more and less than 20 is denoted as A)	AA (a compound having 20 or more is denoted as AA)
CCC[C@H]1C(=O)N[C@@H](C2CCCC2)C(=O)N(C)CC(=O)N(C)[C@H]2C/C=C\CCN(C2=O)[C@@H](Cc2ccc(C)cc2)C(=O)N(C)CC(=O)N[C@@H](CCc2ccc(C(F)(F)F)c(Cl)c2)C(=O)N2CC3(CC3)C[C@H]2C(=O)N(C)C2(CCC2)C(=O)N(C)[C@@H](C(CC)CC)C(=O)N(C)[C@H](C(=O)N(C)C)CC(=O)N1C [PP3324]			0.23	16.4				B (a compound having 3 or more and less than 10 is denoted as B)	AA (a compound having 20 or more is denoted as AA)
CCO[C@@H]1C[C@H]2C(=O)NC3(CCC3)C(=O)N(C)[C@@H](C3CCCC3)C(=O)N(C)[C@H](C(=O)N3CCOCC3)CC(=O)N(C)[C@@H](CC)C(=O)N[C@@H]([C@@H](C)CC)C(=O)N(C)CC(=O)N(C)[C@H]3C[C@@H](C)[C@@H](C)CN(C3=O)[C@@H](Cc3ccc(C(F)(F)F)cc3)C(=O)N(C)CC(=O)N[C@@H](CCc3cc(F)c(C(F)(F)F)c(F)c3)C(=O)N2C1 [PP1354]	0.056	3.6				B (a compound having 3 or more and less than 10 is denoted as B)	A (a compound having 10 or more and less than 20 is denoted as A)		
CCC[C@H]1C(=O)N[C@@H]([C@@H](C)CC)C(=O)N(C)CC(=O)N(C)[C@H]2C/C=C\CCN(C2=O)[C@@H](Cc2ccc(C)cc2)C(=O)N(C)CC(=O)N[C@@H](CCc2cc(F)c(C(F)(F)F)c(F)c2)C(=O)N2CC3(CC3)C[C@H]2C(=O)NC2(CCC2)C(=O)N(C)[C@@H](C(CC)CC)C(=O)N(C)[C@H](C(=O)N(C)C)CC(=O)N1C [PP3420]			0.42	13.2				A (a compound having 10 or more and less than 20 is denoted as A)	AA (a compound having 20 or more is denoted as AA)
CCO[C@@H]1C[C@H]2C(=O)NC3(CCCC3)C(=O)N(C)[C@@H](C3CCCC3)C(=O)N(C)[C@H](C(=O)N(C)C)CC(=O)N(C)[C@@H](CC3CC3)C(=O)N[C@@H]([C@@H](C)CC)C(=O)N(C)CC(=O)N(C)[C@H]3C[C@@H](C)[C@@H](C)CN(C3=O)[C@@H](Cc3ccc(C(F)(F)F)cc3)C(=O)N(C)CC(=O)N[C@@H](CCc3cc(F)c(C(F)(F)F)c(F)c3)C(=O)N2C1 [PP1356]	0.047	3.3				B (a compound having 3 or more and less than 10 is denoted as B)	B (a compound having 3 or more and less than 10 is denoted as B)		

More lines, main results first:

Kd [2, 6] [nM]	IC50 [3, 7] [nM]	Kd ([2]; Single Cycle Kinetics) [nM]	IC50 ([3]; NCI-H441 cells, 4 days) [nM]	Kd ([2]; 1:1 binding model) [nM]	SMILES	HRAS /KRAS (HRAS wild-type protein; [4])	NRAS /KRAS [1, 5]	HRAS /KRAS (HRAS wild-type protein; [8])	NRAS /KRAS [1, 9]
0.091	5				CC[C@H](C)[C@@H]1NC(=O)[C@H](CC2CCC2)N(C)C(=O)C[C@@H](C(=O)N(C)C)N(C)C(=O)[C@H](C2CCCC2)N(C)C(=O)C2(CCCC2)NC(=O)[C@@H]2CCCN2C(=O)[C@H](CCc2ccc(C(F)(F)F)c(Cl)c2)NC(=O)CN(C)C(=O)[C@H](Cc2ccc(C(F)(F)F)cc2)N2C[C@H](C)CC[C@@H](C2=O)N(C)C(=O)CN(C)C1=O [PP1342]	B (a compound having 3 or more and less than 10 is denoted as B)	B (a compound having 3 or more and less than 10 is denoted as B)		
		0.18	17.2		CCC[C@H]1C(=O)N[C@@H](C2CCCC2)C(=O)N(C)CC(=O)N(C)[C@H]2C/C=C\CCN(C2=O)[C@@H](Cc2ccc(C)cc2)C(=O)N(C)CC(=O)N[C@@H](CCc2cc(F)c(C(F)(F)F)c(F)c2)C(=O)N2CC3(CC3)C[C@H]2C(=O)N(C)C2(CCC2)C(=O)N(C)[C@@H](C(CC)CC)C(=O)N(C)[C@H](C(=O)N(C)C)CC(=O)N1C [PP3308]			B (a compound having 3 or more and less than 10 is denoted as B)	A (a compound having 10 or more and less than 20 is denoted as A)
		0.078	4.5		C#CC[C@H]1C(=O)N[C@@H]([C@@H](C)CC)C(=O)N(C2CC2)CC(=O)N(C)[C@H]2C/C=C\CCN(C2=O)[C@@H](Cc2ccc(C)cc2)C(=O)N(C)CC(=O)N[C@@H](CCc2ccc(C(F)(F)F)c(OC)c2)C(=O)N2C[C@H](OCC)C[C@H]2C(=O)N(C)C2(CCC2)C(=O)N(C)[C@@H](C2CCCC2)C(=O)N(C)[C@H](C(=O)N(C)C)CC(=O)N1C [PP3248]			A (a compound having 10 or more and less than 20 is denoted as A)	A (a compound having 10 or more and less than 20 is denoted as A)
0.42	33.4				CCO[C@@H]1C[C@H]2C(=O)NC3(CCC3)C(=O)N(C)[C@@H](C(CC)CC)C(=O)N(C)[C@H](C(=O)N(C)C)CC(=O)N(C)[C@@H](CC)C(=O)N[C@@H]([C@@H](C)CC)C(=O)N(C)CC(=O)N(C)[C@H]3C/C=C\CCN(C3=O)[C@@H](Cc3ccc(C(F)(F)F)cc3)C(=O)N(C)CC(=O)N[C@@H](CCc3ccc(Cl)c(Cl)c3)C(=O)N2C1 [PP1215]	A (a compound having 10 or more and less than 20 is denoted as A)	AA (a compound having 20 or more is denoted as AA)		
		0.53	11.3		CCO[C@@H]1C[C@H]2C(=O)OC3(CCC3)C(=O)N(C)[C@@H](C3CCCC3)C(=O)N(C)[C@H](C(=O)N(C)C)CC(=O)N(C)[C@@H]([C@H](C)OC)C(=O)N[C@@H]([C@@H](C)CC)C(=O)N3CCC[C@H]3C(=O)N(C)[C@H]3C/C=C\CCN(C3=O)[C@@H](Cc3ccc(C(F)(F)F)cc3)C(=O)N(C)CC(=O)N[C@@H](CCc3ccc(C(F)(F)F)c(OC)c3)C(=O)N2C1 [PP3377]			A (a compound having 10 or more and less than 20 is denoted as A)	A (a compound having 10 or more and less than 20 is denoted as A)
		0.5	34		CCC[C@H]1C(=O)N[C@@H]([C@@H](C)CC)C(=O)N2CCCC[C@H]2C(=O)N(C)[C@H]2C/C=C\CCN(C2=O)[C@@H](Cc2ccc(C)cc2)C(=O)N(C)CC(=O)N[C@@H](CCc2ccc(C(F)(F)F)c(OC)c2)C(=O)N2C[C@H](OCC)C[C@H]2C(=O)N(C)C2(CCC2)C(=O)N(C)[C@@H](C2CCCC2)C(=O)N(C)[C@H](C(=O)N(C)C)CC(=O)N1C [PP3273]			B (a compound having 3 or more and less than 10 is denoted as B)	A (a compound having 10 or more and less than 20 is denoted as A)
0.15	24.6				CCO[C@@H]1C[C@H]2C(=O)NC3(CCC3)C(=O)N(C)[C@@H](C3CCCC3)C(=O)N(C)[C@H](C(=O)N3CCOCC3)CC(=O)N(C)[C@@H](CC(F)F)C(=O)N[C@@H]([C@@H](C)CC)C(=O)N(C)CC(=O)N(C)[C@H]3C/C=C\CCN(C3=O)[C@@H](Cc3ccc(C(F)(F)F)cc3)C(=O)N(C)CC(=O)N[C@@H](CCc3cc(F)c(C(F)(F)F)c(F)c3)C(=O)N2C1 [PP1285]	A (a compound having 10 or more and less than 20 is denoted as A)	AA (a compound having 20 or more is denoted as AA)		
